What all share (format): in vivo, Gallus gallus
The subject of one experiment is IL-1β. Put plainly: Gene expression (RT-PCR), IL-1β. Conditions: at hatch; b175, b210: compared with the 5% inulin control group; b192: comparator not stated; p<0.05. The protocol: (§1) The pure resveratrol and pterostilbene were individually diluted in 18 MΩ H2O. The intra-amniotic administration followed the methodology previously described. On the 17th day of embryonic development, the eggs with viable embryos (n=60) were randomly allocated into 6 groups (n=10) with a similar weight frequency distribution. For the intra-amniotic treatment, 1 mL of solution per egg was injected into the amniotic fluid (via candling) with the aid of a 21-gauge needle. […]
(§2) The RNA was isolated as described previously (RNeasy Mini Kit, Qiagen Inc., Valencia, CA, USA), and 30 mg of the duodenal tissue or liver tissue (n =8) was used to extract the total RNA. […] Finally, the RNA was eluted in 50 μL of RNase-free water and quantified by absorbance at 260 and 280 nm.
(§3) RT-PCR was conducted as described. […] The cDNA content was assessed by absorbance at 260 and 280 nm, with an extinction coefficient of 33 (single-stranded DNA). Genomic DNA contamination was evaluated via a real-time RT-PCR assay for the reference gene samples [17,18,30]. […]
(§4) The procedures were performed as previously published. […] The optimal MgCl2 concentration achieved, for each reaction, an amplification plot (lowest cycle product, Cp), the uppermost fluorescence intensity and the steepest amplification slope. […]

The test system of another experiment is TNF-α. The experiment can be described thus: Gene expression (RT-PCR), TNF-α. As to conditions: at hatch; b175, b210: compared with the 5% inulin control group; b192: comparator not stated; p<0.05. Here is the method:
as §1, §2, §3, §4

Another experiment has as its system cecal microbiome. The experiment can be described thus: 16S rRNA gene sequencing of the cecal microbiota. Conditions: cecal content at hatch. The protocol:
The pure resveratrol and pterostilbene were individually diluted in 18 MΩ H2O. The intra-amniotic administration followed the methodology previously described. On the 17th day of embryonic development, the eggs with viable embryos (n=60) were randomly allocated into 6 groups (n=10) with a similar weight frequency distribution. For the intra-amniotic treatment, 1 mL of solution per egg was injected into the amniotic fluid (via candling) with the aid of a 21-gauge needle. After the procedure, the injection sites were sealed with cellophane tape, and the eggs were distributed into six groups: (1) no injection; (2) 18 MΩ H2O; (3) 5% inulin; (4) 5% resveratrol; (5) 5% pterostilbene; and (6) synergistic: 4.75% resveratrol and 0.25% pterostilbene. […] The eggs were equally distributed in each incubator location to reduce possible allocation bias. Upon hatching (21 days), the hatchlings were euthanized by CO2 exposure, and the blood, liver, heart, pectoral muscle, small intestine and cecum were obtained.
As was formerly described, cecal samples were used to extract microbial genomic DNA (PowerSoil DNA isolation kit, MoBio Laboratories Ltd., Carlsbad, CA, USA). […] The PCR products were purified (Beckman Coulter, Atlanta, GA, USA) and quantified (Quant-iT PicoGreen dsDNA quantitation kit, Invitrogen, Carlsbad, CA, USA). […]
The 16S rRNA gene sequence analysis was performed using QIIME2 as previously described. The sequence reads were demultiplexed by per-sample barcodes, and the Divisive Amplicon Denoising Algorithm (DADA2) was used to correct the Illumina-sequenced amplicon read errors. […] The alpha and β diversity were calculated from samples containing at least 9.800 sequences. The alpha diversity parameter, a measure of the richness of the bacterial community, was calculated using the Shannon Index, and the beta diversity was assessed by a Jaccard similarity distance matrix. […]
The values in this paper were expressed as means and standard errors of the means (SEM). […] The results were analyzed by Analysis of Variance (ANOVA). […]

This is an account of results in patent US20240148671A1, “METHODS FOR IMPROVING POULTRY HEALTH” (CORNELL UNIVERSITY, priority 2021, published 2024).

As for `Oc1ccc(C=Cc2cc(O)cc(O)c2)cc1` [5% Resveratrol, Resveratrol], in the experiment with IL-1β, the IL-1β gene expression result is given as “downregulated”. Also, the TNF-α gene expression result in the experiment on TNF-α is reported as “downregulated”. The “β diversity of the cecal microbiome (Jaccard distances), comparison between groups” value in the experiment with cecal microbiome (n=5, 5% inulin vs all other experimental groups (p<0.01), 5% pterostilbene vs 18 MΩ H2O control (p<0.05), stilbene groups among each other) is given as “strong clustering”. Moreover, the “Most differentially enriched taxa (LEfSe) vs no injection control” value in the experiment with cecal microbiome (compared with the no injection control group, p<0.05 (FIGS. 5A-5B)) was “Enterobacteriales order and Enterobacteriaceae family”.
